Columns and labels:
GluK2 receptor = target: T1, GluK2 receptor (Rattus norvegicus, UniProt P42260); experiment: Xenopus oocyte currents, […] ShuBQX-3 in the dark; […] antagonism at […] glutamate, […] at […] glutamate; format: cell-based; settings: read-out: % antagonism at 5 μM (30 μM glutamate)
T1 construct: gene Grik2; GluK2-containing receptors expressed in Xenopus oocytes

[1] = target: T2, GluA1 (GluA1-containing receptors) (Rattus norvegicus, UniProt P19490); experiment: Xenopus oocyte currents, […] kainic acid, […] ShuBQX-3 in the dark ([…] antagonism); format: cell-based
T2 construct: gene Gria1; GluA1-containing receptors expressed in Xenopus oocytes
T2 sequence (P19490 19-907): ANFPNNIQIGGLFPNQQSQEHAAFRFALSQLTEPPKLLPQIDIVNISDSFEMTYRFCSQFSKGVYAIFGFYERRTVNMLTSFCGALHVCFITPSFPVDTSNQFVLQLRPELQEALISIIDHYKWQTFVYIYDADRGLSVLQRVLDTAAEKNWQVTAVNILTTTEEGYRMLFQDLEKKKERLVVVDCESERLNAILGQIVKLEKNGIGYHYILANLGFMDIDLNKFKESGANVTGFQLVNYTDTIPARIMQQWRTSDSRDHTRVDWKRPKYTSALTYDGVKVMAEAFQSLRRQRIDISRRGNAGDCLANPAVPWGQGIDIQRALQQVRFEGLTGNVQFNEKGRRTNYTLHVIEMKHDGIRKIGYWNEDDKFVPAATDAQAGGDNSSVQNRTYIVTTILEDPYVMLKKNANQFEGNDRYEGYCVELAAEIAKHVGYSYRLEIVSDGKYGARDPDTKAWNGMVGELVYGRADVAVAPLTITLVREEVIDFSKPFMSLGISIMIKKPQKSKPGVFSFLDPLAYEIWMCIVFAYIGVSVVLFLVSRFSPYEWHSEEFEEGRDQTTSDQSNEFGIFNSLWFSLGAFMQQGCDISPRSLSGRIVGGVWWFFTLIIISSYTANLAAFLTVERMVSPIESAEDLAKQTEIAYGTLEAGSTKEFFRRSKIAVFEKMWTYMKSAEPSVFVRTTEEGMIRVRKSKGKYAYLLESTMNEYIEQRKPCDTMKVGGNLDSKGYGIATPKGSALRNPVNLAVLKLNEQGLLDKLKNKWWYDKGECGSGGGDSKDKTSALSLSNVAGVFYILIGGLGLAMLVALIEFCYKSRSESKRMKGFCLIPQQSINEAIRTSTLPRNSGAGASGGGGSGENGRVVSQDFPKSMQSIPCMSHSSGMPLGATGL

T1 sequence (P42260 32-908): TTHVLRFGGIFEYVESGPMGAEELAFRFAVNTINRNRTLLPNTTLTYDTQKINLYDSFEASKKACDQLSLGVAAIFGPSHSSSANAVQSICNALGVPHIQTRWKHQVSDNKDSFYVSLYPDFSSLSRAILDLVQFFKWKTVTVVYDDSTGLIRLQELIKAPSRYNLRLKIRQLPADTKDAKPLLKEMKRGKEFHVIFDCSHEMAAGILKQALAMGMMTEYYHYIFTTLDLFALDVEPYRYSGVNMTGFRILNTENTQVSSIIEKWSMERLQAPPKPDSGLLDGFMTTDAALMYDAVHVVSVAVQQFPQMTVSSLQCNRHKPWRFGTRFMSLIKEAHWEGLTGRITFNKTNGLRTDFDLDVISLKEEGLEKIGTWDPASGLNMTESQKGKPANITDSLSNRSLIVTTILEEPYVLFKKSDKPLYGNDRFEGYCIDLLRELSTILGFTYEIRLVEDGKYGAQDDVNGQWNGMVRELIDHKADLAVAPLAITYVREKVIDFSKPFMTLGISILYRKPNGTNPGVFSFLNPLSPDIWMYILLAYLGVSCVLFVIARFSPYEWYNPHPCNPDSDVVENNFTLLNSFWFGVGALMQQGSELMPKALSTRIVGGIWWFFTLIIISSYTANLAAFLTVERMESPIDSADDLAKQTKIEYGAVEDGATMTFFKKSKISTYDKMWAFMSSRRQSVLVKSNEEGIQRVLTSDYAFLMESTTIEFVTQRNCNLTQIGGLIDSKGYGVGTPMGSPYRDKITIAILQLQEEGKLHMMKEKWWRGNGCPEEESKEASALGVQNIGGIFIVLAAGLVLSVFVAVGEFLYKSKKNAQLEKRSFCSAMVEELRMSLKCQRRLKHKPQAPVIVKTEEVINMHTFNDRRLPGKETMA

## O=c1[nH]c2cc(C(F)(F)F)c(/N=N/c3ccccc3)cc2n(CP(=O)(O)O)c1=O [ShuBQX-3]
GluK2 receptor
  inhibition at 5 µM: 49%
[1]
  inhibition at 5 µM: 85 to 93%
